PubChem BioAssay (NCI)
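Briefly, cells in 96-well plates were exposed to five compound concentrations for 48 h, and endpoints were estimated by linear interpolation. At the TGI there is no net growth.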 Where a SMILES comes first, the peptide text is derived from it. [ ]: non-standard residue; d: D form. The star is where a group is joined. ξ: configuration not given here. NMeF = CN[CH](Cc1ccccc1)C(=O)O; ξNMe2Val = CC(C)C(C(=O)*)N(C)C; NMeV = CN[CH](C(=O)O)C(C)C; ξNMeV = CNC(C(=O)O)C(C)C; Boc = CC(C)(C)OC(=O)*; OBn = c1ccc(CO*)cc1; OtBu = CC(C)(C)O*

What was measured:
Test in all cases: DTP human tumour cell line panel, 48 h
HOP-62 NSCLC = system: HOP-62 NSCLC
OVCAR-5 ovarian = system: OVCAR-5 ovarian
SK-MEL-28 melanoma = system: SK-MEL-28 melanoma
UACC-62 melanoma = system: UACC-62 melanoma
MOLT-4 leukemia = system: MOLT-4 leukemia
SF-539 CNS = system: SF-539 CNS
CAKI-1 renal = system: CAKI-1 renal
SNB-75 CNS = system: SNB-75 CNS
PC-3 prostate = system: PC-3 prostate
HS 578T breast = system: HS 578T breast

Row | Compound | TGI (HOP-62 NSCLC) [µM] | TGI (OVCAR-5 ovarian) [µM] | TGI (SK-MEL-28 melanoma) [µM] | TGI (UACC-62 melanoma) [µM] | TGI (MOLT-4 leukemia) [µM] | TGI (SF-539 CNS) [µM] | TGI (CAKI-1 renal) [µM] | TGI (SNB-75 CNS) [µM] | TGI (PC-3 prostate) [µM] | TGI (HS 578T breast) [µM]
1 | CC(C)C(C(=O)N(C)[C@H](C(=O)N1CCC[C@H]1C(=O)N(C)[C@@H](Cc1ccccc1)C(=O)OCc1ccccc1)C(C)C)N(C)C(=O)[C@@H](NC(=O)OC(C)(C)C)C(C)C (stereo partly drawn) (Boc-V[ξNMeV][NMeV]P[NMeF]-OBn) | > 31.6 | > 31.6 | > 31.6 | > 31.6 | 21.3 | > 31.6 | > 31.6 | > 100 |  | 
2 | CCCCCCCCCCCC[N+]12CC[N+](C)(CC1)CC2 | > 100 | 41 | > 100 | > 100 | > 100 | > 100 | 30.9 | 37.1 |  | 
3 | CC(=O)OCC1OC(n2c(=S)n(-c3ccccc3)c(=O)c3cc(Br)ccc32)C(OC(C)=O)C1OC(C)=O (stereo not drawn) | > 100 | > 100 | > 100 | > 100 | > 100 | > 100 | > 100 | > 100 |  | 
4 | COc1cc(S(=O)(=O)Nc2ccc(-c3csc(N4C(=O)CSC4c4ccccc4O)n3)cc2)ccc1Cl (stereo not drawn) | > 100 | > 100 | 88.2 | > 100 | > 100 | > 100 | > 100 | 92.2 | > 100 | 
5 | CCC(Nc1ncnc2nc[nH]c12)C(=O)O (stereo not drawn) | > 100 | > 100 | > 100 | > 100 |  |  | > 100 | > 100 | > 100 | > 100
6 | CC(C)(C)OC(=O)N1N=CCC1c1ccccc1 (stereo not drawn) | > 100 | > 100 |  | > 100 |  | > 100 | > 100 | > 100 |  | > 100
7 | CN(C)S(=O)(=O)c1nc(Cl)c2[nH]cnc2n1 | > 100 | > 100 | > 100 | > 100 | > 100 |  | > 100 | > 100 | > 100 | > 100
8 | Cc1ccc(Nc2nc(-c3ccc(-c4ccc([N+](=O)[O-])cc4)o3)cs2)cc1 | > 100 | > 100 | > 100 | > 100 | > 100 | > 100 | > 100 | > 100 |  | 
9 | Cc1nc2ccc(NC3OCC(O)C(O)C3O)cc2c(=O)n1-c1ccccc1 (stereo not drawn) | > 100 | > 100 | > 100 | > 100 | > 100 |  | > 100 | > 100 | > 100 | > 100
10 | O=C1Nc2ccc(Br)cc2/C1=N/N1C(=O)C(=O)N(C2CCCCC2)C1=S | 14.3 | 28.9 | 19 | 12.2 | 16.5 | 18.3 | 12.3 |  | 25.9 | 23.2
11 | CC(=O)Nc1ccc(/C=c2\sc3nnc(-c4cccnc4)n3c2=O)cc1 | 52.6 | 67.1 | 33 | 27.7 | 64.3 | 33.3 | 35.3 | 57.7 |  | 
12 | O=c1/c(=C/c2ccccn2)sc2nc3cc4c(cc3n12)OCCO4 | > 100 | > 100 | > 100 | > 100 | > 100 |  | > 100 | > 100 | > 100 | > 100
13 | CSc1nc(NCc2ccccc2)c2cnn(COCCO)c2n1 | > 100 | > 100 |  | > 100 | 86.7 | > 100 | > 100 | 53.6 | > 100 | 
14 | O=C(NC1=C(Cl)C(=O)c2ccccc2C1=O)C(=O)C(C(=O)c1ccc2ccccc2c1)C1OC(=O)c2ccccc21 (stereo not drawn) | 20.2 | 27.5 | 14.5 | 4.31 | 14.1 | 9.66 | 23.2 | 13.6 |  | 45.2
15 | NC(=S)N1N=C2c3ccccc3CCC[C@H]2[C@@H]1c1ccccc1 | 19.2 | 55.5 | 32.6 |  | 18.9 | 2.61 |  | 0.9 | 18.3 | 17.4
16 | CC(C)C(C(=O)N(C)C(Cc1ccccc1)C(=O)N(C)C(C(=O)N(C)C(C(=O)N1CCCC1C(=O)OC(C)(C)C)C(C)C)C(C)C)N(C)C (stereo not drawn) (ξNMe2Val-[NMeF][NMeV][NMeV]P-OtBu; configuration not given here) | > 100 |  |  | > 100 | 33.7 | > 100 |  |  |  | 
17 | COc1ccc(NC(=O)C(=O)Cc2ccc([N+](=O)[O-])c([N+](=O)[O-])c2CC(=O)C(=O)Nc2ccc(OC)cc2OC)c(OC)c1 | > 100 | > 100 | > 100 | > 100 | > 100 |  | > 100 | > 100 |  | 
18 | CN(C)CCC[N+]1=Nc2cccc3cccc(c23)N1 | > 100 | > 100 | > 100 | > 100 | 62.4 | > 100 | > 100 | > 100 |  | 
19 | Cc1nn2c(c1C#N)NNc1c-2sc(=N)nnc1=O | > 100 | > 100 | > 100 | > 100 | > 100 | > 100 | > 100 |  |  | 
20 | Cc1ccc(NC(=O)C2C3CCC(O3)C2C(=O)O)cc1 (stereo not drawn) | > 100 | > 100 | > 100 | > 100 | > 100 | > 100 | > 100 | > 100 |  | 
21 | CCNC(=S)NNC(=O)c1ccccc1Nc1ccccc1C(=O)NNC(=S)NCC | > 100 | > 100 | > 100 | > 100 | > 100 |  |  | > 100 | > 100 | > 100
22 | N#COc1ccc(Oc2ccc(OC#N)cc2)cc1 | > 100 | > 100 | > 100 | > 100 | > 100 | > 100 | > 100 | > 100 |  | 
23 | CNC(=O)CNC(=O)N(C[C@@H]1CCCN1C(=O)[C@H](CC(C)C)NC(=O)OC(C)(C)C)C(C)C | > 100 | > 100 | > 100 | > 100 | > 100 |  | > 100 | > 100 | > 100 | > 100

Row | Compound | TGI (HOP-62 NSCLC) [µM] | TGI (OVCAR-5 ovarian) [µM] | TGI (SK-MEL-28 melanoma) [µM] | TGI (UACC-62 melanoma) [µM] | TGI (MOLT-4 leukemia) [µM] | TGI (SF-539 CNS) [µM] | TGI (CAKI-1 renal) [µM] | TGI (SNB-75 CNS) [µM] | TGI (PC-3 prostate) [µM] | TGI (HS 578T breast) [µM]
24 | CCCCCCCCCCCCOC1C(COCCN2CCCCC2)OC2OC(C)(C)OC21 (stereo not drawn) | 3.25 | 4.23 | 3.25 | 3.27 | 3.74 | 3.18 | 3.28 |  | 3.8 | 4.17
25 | CCOC(=O)c1cc(C)nc2c1c(=O)n(-c1ccccc1)c(=O)n2CCCCN1CCN(c2ncccn2)CC1 | > 100 | > 100 | > 100 | > 100 | > 100 |  | 83.8 | > 100 | > 100 | > 100
26 | C=C(C)CCC1C=[N+]([O-])OC(C)(C)C1(C)C (stereo not drawn) | > 100 | > 100 |  | > 100 | > 100 | > 100 | > 100 | > 100 |  | > 100
27 | CCOS(=O)(=O)c1ccc(-c2c3nc(c(-c4ccc(S(=O)(=O)OCC)cc4)c4ccc([nH]4)c(-c4ccc(S(=O)(=O)OCC)cc4)c4nc(c(-c5ccc(S(=O)(=O)OCC)cc5)c5ccc2[nH]5)C=C4)C=C3)cc1 |  | > 31.6 |  | > 31.6 | > 31.6 | > 31.6 | > 31.6 |  | > 31.6 | > 31.6
28 | CC#COS(=O)(=O)c1ccc(C)cc1 | > 100 | > 100 |  | > 100 | > 100 | > 100 | > 100 |  |  | 
29 | COc1ccc(C2=Nc3ccccc3N=C(SC)C2)cc1 | > 100 | > 100 | > 100 | > 100 | > 100 | > 100 | > 100 | > 100 |  | 
30 | CC12CCc3ccccc3C1=NNC(=O)C2 (stereo not drawn) | > 100 | > 100 | > 100 |  | > 100 | > 100 | > 100 | > 100 |  | 
31 | CCCCCCCCCCCCCS(=O)(=O)NCC(N)=O | > 100 | > 100 | > 100 | > 100 |  | > 100 |  | 74.7 |  | 
32 | O=C1[C@@H]2C(c3ccccc3[N+](=O)[O-])=NO[C@@H]2C(=O)N1c1ccc(Cc2ccc(N3C(=O)[C@H]4C(c5ccccc5[N+](=O)[O-])=NO[C@H]4C3=O)cc2)cc1 | > 100 | > 100 | > 100 | > 100 | > 100 | > 100 | > 100 | > 100 |  | 
33 | CC(=O)[C@@]1(c2ccccc2)CC2(CCN(C)CC2)O[C@H]1C | > 100 | > 100 | > 100 |  | > 100 | > 100 | > 100 | > 100 |  | 
34 | O=C1CC(c2ccccc2)n2c(nc3ccccc32)N1 (stereo not drawn) | > 100 | > 100 |  | > 100 | > 100 | > 100 | > 100 |  | > 100 | > 100
35 | Cc1ccc(S(=O)(=O)NNS(C)(=O)=O)cc1 | > 100 |  |  | > 100 | > 100 | > 100 | > 100 | > 100 |  | 
36 | CCCCOC(=O)NC(=O)c1cn(CCCOC(=O)CCCCCCCCC(=O)OCCCn2cc(C(=O)NC(=O)OCCCC)c(=O)n(C)c2=O)c(=O)n(C)c1=O | > 100 | > 100 | > 100 | > 100 | > 100 | > 100 | > 100 | > 100 |  | 
37 | COc1ccc([C@H]2CC3C(=O)N(c4ccc(OC)cc4)C(=O)C3c3[nH]c4ccccc4c32)cc1 (stereo partly drawn) | > 100 | > 100 | > 100 | > 100 | > 100 | 51.6 | > 100 | 83.7 |  | 
38 | CN1C(=O)C23CCCC2CC1(c1ccccc1)S3 (stereo not drawn) | > 100 | > 100 | > 100 | > 100 | > 100 | > 100 | > 100 |  | > 100 | > 100
39 | Cc1ccnc(Nc2[nH]c(C(=O)c3ccc(Cl)cc3)c(N)c2C(=S)Nc2ccccc2)c1 | 47.3 | 55.3 | 35.9 | 25.3 | 48.5 | 26.6 | > 100 | 39.7 | > 100 | 
40 | Brc1ccc(-c2cc3c(cc2C2SCCS2)OCO3)cc1 | > 100 | > 100 | > 100 |  | > 100 | 39.1 |  | 39.9 |  | 
41 | CCN(CC)c1c(C)nnn1C1OC(COC(C)=O)C(OC(C)=O)C(OC(C)=O)C1OC(C)=O (stereo not drawn) | > 100 | > 100 | > 100 | > 100 | > 100 | > 100 | > 100 | > 100 |  | 
42 | O=C1CN(c2cccc(C(F)(F)F)c2)C(=O)CN1CCN1CC(=O)N(c2cccc(C(F)(F)F)c2)CC1=O | > 100 | > 100 | > 100 |  | > 100 | > 100 |  | > 100 | > 100 | > 100
43 | CSC(C1c2ccccc2N(C)c2[nH]c(=O)n(C)c(=O)c21)S(=O)(=O)c1ccc(C)cc1 (stereo not drawn) | > 100 | > 100 | > 100 | > 100 | > 100 | > 100 | > 100 | > 100 |  | 
44 | COc1ccc2nc3ccccc3c(NCCCCN(CCCl)CCCl)c2c1 | 24.8 | > 23.6 | 8.02 | 1.42 | < 0.0369 | 1.26 |  | 2.04 | 7.56 | > 22.1
45 | CCO/C(O)=c1/s/c(=C(\C#N)c2nc3ccccc3[nH]2)n(-c2ccccc2)c1=N | > 100 | > 100 | > 100 | > 100 | > 100 | > 100 | > 100 | > 100 |  | 
46 | Cc1cc(C)n(-c2nc(C)c(CCO)c(=O)[nH]2)n1 | > 100 | > 100 | > 100 | > 100 | > 100 | > 100 |  | > 100 | > 100 | > 100
